This passage reports Kd results from PubChem BioAssay AID1033 (Sanford-Burnham Center for Chemical Genomics, 2008).

Active and inactive are the calls of the source. The rule behind the calls is not given here.

Chaperone protein DnaK (Escherichia coli (strain K12)), sequence (P0A6Y8 whole entry, looked up): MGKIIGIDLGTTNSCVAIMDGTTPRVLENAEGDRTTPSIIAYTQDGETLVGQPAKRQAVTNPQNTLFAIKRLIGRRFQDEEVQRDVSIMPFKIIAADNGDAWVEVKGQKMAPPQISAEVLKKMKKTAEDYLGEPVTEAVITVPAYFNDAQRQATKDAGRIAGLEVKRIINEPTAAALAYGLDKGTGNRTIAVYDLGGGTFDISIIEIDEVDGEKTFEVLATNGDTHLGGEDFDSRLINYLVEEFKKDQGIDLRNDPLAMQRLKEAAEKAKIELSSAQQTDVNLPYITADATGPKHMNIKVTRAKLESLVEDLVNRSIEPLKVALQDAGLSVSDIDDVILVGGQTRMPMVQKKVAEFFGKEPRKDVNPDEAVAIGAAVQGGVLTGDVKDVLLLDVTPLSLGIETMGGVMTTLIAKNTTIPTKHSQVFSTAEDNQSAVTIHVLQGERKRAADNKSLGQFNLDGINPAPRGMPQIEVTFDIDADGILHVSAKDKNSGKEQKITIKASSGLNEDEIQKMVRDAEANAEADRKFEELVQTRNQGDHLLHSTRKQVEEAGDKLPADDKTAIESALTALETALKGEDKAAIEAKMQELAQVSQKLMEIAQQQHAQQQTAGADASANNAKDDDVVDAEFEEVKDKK

The assay has as its target Chaperone protein DnaK (Escherichia coli (strain K12)) (UniProt P0A6Y8). The experiment in a line: E. coli DnaK SBD ligand binding – biophysical, NMR, chaperone (AID 1033). As to conditions: Purified DnaK SBD.
For the compound `OC[C@@H]1CCCN2CCCC[C@H]12`, the Kd was > 4 mM (inactive).
Next, `Cc1sc2nc[nH]c(=S)c2c1C`: > 4 mM (inactive).
`C=C1CCC(C2CC(=O)OC2=O)C(=O)CCC2C1CC2(C)C` (configuration not stated): the Kd is > 4 mM (inactive).
Consider `CSc1nc(O)cc(=O)[nH]1`, for which the Kd was > 4 mM (inactive).
Regarding `CCN1CC2(C)CC[C@H](OC)[C@]34C2[C@H](O)C2(OCO[C@@]25C[C@H](OC)[C@H]2C[C@]3(O)C5[C@H]2O)C14`, the Kd was > 4 mM (inactive).
Next, `Cn1c(CSc2nc3ccccc3s2)n[nH]c1=S`: > 4 mM (inactive).
On to `Nc1nc(-c2ccccc2)ns1`, for which the Kd was > 4 mM (inactive).
Turning to `CC(O)c1nc2ccccc2[nH]1` (configuration not stated), the Kd is > 4 mM (inactive).
Next, `NCc1ccc2sccc2c1`: > 4 mM (inactive); `COC(=O)[C@@]1(C)CCC[C@]2(C)c3ccc(O)c(C(C)C)c3CCC12` (some centres not stated): > 4 mM (inactive).
Next, `O=CN1CCN(C(=O)c2ccccc2Cl)CC1`: > 4 mM (inactive).
Next, `ON=c1ccc2nc3ccccc3nc2cc1`: > 4 mM (inactive); `CCOC(=O)C1=C(O)CCN(C)C1`: > 4 mM (inactive).
As to `Cc1nc2sccn2c1C(=O)O`, the Kd is > 4 mM (inactive).
With `Nc1ccc(CCC(=O)O)cc1`, the Kd was > 4 mM (inactive).
Next, `CC(C)=CCc1c(O)cc(C)oc1=O`: > 4 mM (inactive).
`Oc1cccc(N2CCOCC2)c1`: the Kd was > 4 mM (inactive).
As for `Clc1ccc(-c2noc(CN3CCCC3)n2)cc1`, the Kd was > 4 mM (inactive).
Next, `Cn1nc(C(=O)Nc2cccnc2)cc1Cl`: > 4 mM (inactive); `COc1cc2c(cc1-c1coc3c4c(c(OC)cc3c1=O)OC(C)(C)C=C4)OCO2`: > 4 mM (inactive); `Cc1cc(C)nc(N(C#N)Cc2ccccc2)n1`: > 4 mM (inactive).
`O=C1c2ccncc2C(=O)N1CO`: the Kd was > 4 mM (inactive).
As to `CC(=O)OCC(=O)[C@@]1(O)CCC2C3CC[C@@H]4C[C@H](OC(C)=O)CC[C@]4(C)C3C(=O)C[C@@]21C` (some centres not stated), the Kd was > 4 mM (inactive).
Consider `C=C1C2CC[C@@]3(C)[C@H](c4ccoc4)OC(=O)C[C@]13O[C@H]1CC(=O)C(C)(C)[C@H](C(O)C(=O)OC)[C@@]21C` (some centres not stated), for which the Kd was > 4 mM (inactive).
For `O=C(NC1CC1)c1ccccc1[N+](=O)[O-]`, the Kd was > 4 mM (inactive).
Take `C=C[C@@](C)(O)CCC1C(=C)C[C@H](OC(C)=O)C2C(C)(C)CCCC12C` (some centres not stated): the Kd is > 4 mM (inactive).
For `CCP(=O)(CC)c1cccc(C)c1`, the Kd is > 4 mM (inactive).
For the compound `NC(=O)NC(=O)Nc1ccc(Cl)cc1`, the Kd was > 4 mM (inactive).
Next, `Cc1n[nH]c(C)c1NC(=O)c1cccc(F)c1`: > 4 mM (inactive); `Cc1[nH]c2ccccc2c1Cc1n[nH]c(=S)n1C`: > 4 mM (inactive).
Next, `O=c1ccn([C@@H]2O[C@H](COP(=O)(O)OP(=O)(O)OP(=O)(O)O)[C@@H](O)[C@H]2O)c(=O)[nH]1`: > 4 mM (inactive); `OCC1CCN(Cc2ccccc2)CC1`: > 4 mM (inactive).
Next, `OCc1ccc2c(c1)CCO2`: > 4 mM (inactive).
Turning to `Cc1cc(C)n(CCCC(=O)O)n1`, the Kd is > 4 mM (inactive).
Next, `CN(C)c1nc(N)nc(-c2nc3ccccc3s2)n1`: > 4 mM (inactive); `Cc1cc(C)c(C(N)=O)c(=S)[nH]1`: > 4 mM (inactive); `CC(=O)NC(=S)Nc1ccc(S(N)(=O)=O)cc1`: > 4 mM (inactive).
As for `CS(=O)(=O)c1ccccc1C(=O)Nc1nccs1`, the Kd is > 4 mM (inactive).
In the case of `Nc1nc2ccc(N3CCOCC3)cc2s1`, the Kd is > 4 mM (inactive).
Next, `Cc1nnc(SCC(=O)NC2CCCC2)[nH]c1=O`: > 4 mM (inactive); `Cc1occc1C(=O)Nc1nnc(C2CCCCC2)s1`: > 4 mM (inactive); `CC(=O)Oc1cc(OC(C)=O)c2c(c1)O[C@H](c1ccc(OC(C)=O)c(OC(C)=O)c1)[C@H](OC(C)=O)C2`: > 4 mM (inactive).
Next, `COC(=O)c1c(C)cc(OC)cc1O`: > 4 mM (inactive); `CCOC(=O)CN1C(=O)c2ccccc2C1=O`: > 4 mM (inactive); `Cc1cc(NC(=O)c2ocnc2C)no1`: > 4 mM (inactive).
Next, `Cc1cc(C)nc(Nc2n[nH]c(Cc3ccccc3)n2)n1`: > 4 mM (inactive); `Cc1onc(-c2c(Cl)cccc2Cl)c1C(N)=O`: > 4 mM (inactive).
Turning to `O=C(O)CC1NCCNC1=O` (configuration not stated), the Kd was > 4 mM (inactive).
In the case of `CNC(=O)c1cc2cccc(OC)c2oc1=O`, the Kd was > 4 mM (inactive).
Next, `COc1cnn(Cc2ccccc2)c(=O)c1Cl`: > 4 mM (inactive); `COc1ncnc(N)c1[N+](=O)[O-]`: > 4 mM (inactive); `OCC1CCCC1O` (configuration not stated): > 4 mM (inactive).
Next, `Cc1nnsc1-c1onc(C)c1C(=O)O`: > 4 mM (inactive); `NC1=C(c2ccccc2)C(=O)c2ccccc21`: > 4 mM (inactive); `Cc1nnsc1C(=O)Nc1cccc(S(N)(=O)=O)c1`: > 4 mM (inactive).
Next, `Cn1c(=O)n(C)c2cc(C(N)=O)ccc21`: > 4 mM (inactive); `O=C(O)c1cn(-c2ccccc2)nc1-c1cccnc1`: > 4 mM (inactive); `O=C(O)CCSc1nc2ccccc2s1`: > 4 mM (inactive).
For the compound `OCc1ccc(-c2ccccn2)s1`, the Kd is > 4 mM (inactive).
With `CCN1C(=O)N(CO)C2C1N(C)C(=O)N2C` (configuration not stated), the Kd is > 4 mM (inactive).
Turning to `NS(=O)(=O)c1ccc(N2CCCC2=O)cc1`, the Kd is > 4 mM (inactive).
Turning to `CN(C)N1C(=O)c2ccccc2C1=O`, the Kd is > 4 mM (inactive).
Next, `N#Cc1cnn(-c2ccc(Cl)cc2)c1N`: > 4 mM (inactive); `CCNC(=O)CC[C@H](N)C(=O)O`: > 4 mM (inactive); `CN(C)S(=O)(=O)c1ccc(C(=O)NN)cc1`: > 4 mM (inactive).
Next, `O=C(CN1C(=O)c2cccc3cccc(c23)C1=O)NO`: > 4 mM (inactive).
For the compound `Cc1nnc(SCc2cccs2)[nH]c1=O`, the Kd is > 4 mM (inactive).
Next, `CCOC(=O)c1snnc1-c1ccccc1`: > 4 mM (inactive); `CC(=O)c1ccc(NS(=O)(=O)c2cccc(C)c2)cc1`: > 4 mM (inactive).
Next, `Cc1csc2nc3ccccc3c(=O)n12`: > 4 mM (inactive); `NCc1ccc2c(c1)OCCO2`: > 4 mM (inactive); `CC(=O)OCC[C@H](C)CCC=C(C)C`: > 4 mM (inactive).
Next, `Cc1nc2ccc(NC(=O)N3CCSCC3)cc2s1`: > 4 mM (inactive); `O=C(c1ccccc1)N1CCNCC1`: > 4 mM (inactive).
Consider `Cc1ccc(/C=N/NC(N)=O)o1`, for which the Kd was > 4 mM (inactive).
Next, `O=C1c2ccc(F)cc2C(=O)N1CO`: > 4 mM (inactive).
Consider `COc1ccc2c(c1)OC/C(=C/c1ccc(O)c(O)c1)C2=O`, for which the Kd is > 4 mM (inactive).
Next, `CC(=O)Nc1ccc(Oc2nc(C)cc(C)n2)cc1`: > 4 mM (inactive).
Regarding `O=CN1CCN(C2CC(=O)N(c3ccccc3)C2=O)CC1` (configuration not stated), the Kd is > 4 mM (inactive).
Consider `Cc1n[nH]c(C)c1CN`, for which the Kd is > 4 mM (inactive).
Next, `O=C1CSC(=NC(=O)c2ccccc2)N1`: > 4 mM (inactive); `NC(=O)Nc1cccc(C(F)(F)F)c1`: > 4 mM (inactive).
Next, `COC(=O)CC1=Nc2ccccc2NC(=O)C1`: > 4 mM (inactive).
Next, `Cc1cc(NC(=O)c2c(F)c(F)c(F)c(F)c2F)no1`: > 4 mM (inactive).
As to `COC(=O)c1noc(-c2ccc(OC)cc2)n1`, the Kd is > 4 mM (inactive).
Next, `OCc1cc(F)cc2c1OCOC2`: > 4 mM (inactive).
Next, `O=C(O)c1cc(=O)c2cccc(O)c2[nH]1`: > 4 mM (inactive).
Next, `OCc1ccc(-n2ccnc2)cc1`: > 4 mM (inactive); `CSc1ncnc2nc[nH]c12`: > 4 mM (inactive); `NC(=O)CN1CC(c2ccccc2)CC1=O` (configuration not stated): > 4 mM (inactive).
Consider `COc1cc(OC)c2c(=O)c(-c3ccccc3)coc2c1`, for which the Kd was > 4 mM (inactive).
Next, `CN(C)C(=O)C12CCC(C)(C(=O)O1)C2(C)C` (configuration not stated): > 4 mM (inactive); `Cc1nc2nc(-c3ccco3)nn2c(C)c1Cl`: > 4 mM (inactive); `CC12CC[C@H](CC1=O)C2(C)C`: > 4 mM (inactive).
For the compound `CNC(=O)COc1cccc2c1CCNC2=O`, the Kd is > 4 mM (inactive).
Next, `O=S1(=O)CCC(NC(=S)N2CCOCC2)C1` (configuration not stated): > 4 mM (inactive).
For the compound `Cc1cc(=O)n2[nH]c(N)nc2n1`, the Kd is > 4 mM (inactive).
Next, `O=C(O)c1cccnc1`: > 4 mM (inactive).
Next, `c1ccc2c(NC3=NCCS3)cccc2c1`: > 4 mM (inactive); `Cc1cc(-c2ccc(Cl)cc2)n2nc(N)nc2n1`: > 4 mM (inactive).
Next, `CCC(=O)Oc1ccc(N2C(=O)CCC2=O)cc1`: > 4 mM (inactive); `CC1=C/C(=C\c2c(O)[nH]c(=O)[nH]c2=O)C(C)=N1`: > 4 mM (inactive).
Turning to `O=C(O)c1cccnc1N1CCOCC1`, the Kd is > 4 mM (inactive).
Next, `COc1ccc(/C=C2/N=C(N)SC2=O)cc1`: > 4 mM (inactive); `Cc1cc(O)c(NC(=O)c2ccco2)cc1C`: > 4 mM (inactive); `CC(=O)Oc1c(C)cc(O)c2ccccc12`: > 4 mM (inactive).
Regarding `O=C1C[C@@H](c2ccccc2)Oc2cc(O)cc(O)c21`, the Kd was > 4 mM (inactive).
